One molecule from patent publication US20120149900A1, “FLUORINE CONTAINING COMPOUNDS AND METHODS OF USE THEREOF” (priority 2009, published 2012) can be followed below.

Data set [1] concerns the target opioid (non-selective) receptor. Briefly: Receptor binding assay, opioid (non-selective) (antagonist radioligand). The text has this: (§1) Receptor binding assays (Table 1 and FIGS. 1-4)
Data set [2] addresses T1, human delta 2 (DOP) receptor (Homo sapiens, UniProt P41143).
T1 construct: Cerep
The data set is described as follows: Receptor binding assay, δ2 (DOP) (h) (agonist radioligand).
Description: as §1

In a further data set the target is T2, kappa (KOP) receptor (Rattus norvegicus, UniProt P34975).
T2 construct: Cerep
T2 sequence (P34975 whole entry): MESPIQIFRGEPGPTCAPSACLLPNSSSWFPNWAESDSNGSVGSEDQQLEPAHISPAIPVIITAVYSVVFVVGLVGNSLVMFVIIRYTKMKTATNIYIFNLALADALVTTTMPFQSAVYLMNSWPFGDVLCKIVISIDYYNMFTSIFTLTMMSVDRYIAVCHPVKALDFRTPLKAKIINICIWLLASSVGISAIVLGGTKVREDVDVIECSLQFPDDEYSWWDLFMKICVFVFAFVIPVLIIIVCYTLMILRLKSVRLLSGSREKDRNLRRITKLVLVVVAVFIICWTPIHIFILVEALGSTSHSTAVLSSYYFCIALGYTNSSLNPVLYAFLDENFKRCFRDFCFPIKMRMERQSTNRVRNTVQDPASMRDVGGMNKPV
The data set is described as follows: Receptor binding assay, κ (KOP) (agonist radioligand).
Description: as §1

The target of another data set is T3, human mu (MOP) receptor (Homo sapiens, UniProt P35372).
T3 construct: Cerep
T3 sequence (P35372 whole entry): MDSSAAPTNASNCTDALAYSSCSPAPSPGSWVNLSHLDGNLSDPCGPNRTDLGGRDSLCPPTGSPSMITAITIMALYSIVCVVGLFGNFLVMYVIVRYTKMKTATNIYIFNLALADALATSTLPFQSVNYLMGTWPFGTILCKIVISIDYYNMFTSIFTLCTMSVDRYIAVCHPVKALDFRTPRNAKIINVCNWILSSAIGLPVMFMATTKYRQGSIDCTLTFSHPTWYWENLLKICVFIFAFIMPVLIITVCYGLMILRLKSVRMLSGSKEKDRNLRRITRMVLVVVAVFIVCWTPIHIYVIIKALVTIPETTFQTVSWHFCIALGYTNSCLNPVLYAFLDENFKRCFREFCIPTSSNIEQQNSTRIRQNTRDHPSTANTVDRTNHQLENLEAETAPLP
Briefly: Receptor binding assay, μ (MOP) (h) (agonist radioligand).
Description: as §1

The target of a further data set is mu opioid receptor (Homo sapiens, UniProt P35372). The data set is described as follows: Cellular functional assay, mu opioid receptor. The following applies: EC50 values were not determined. The class given is cell-based.
mu opioid receptor, sequence (P35372 whole entry): as above
The target of a further data set is kappa opioid receptor (Homo sapiens, UniProt P41145). The data set is described as follows: Cellular functional assay, kappa opioid receptor. The class given is cell-based. The following applies: EC50 values were not determined.
kappa opioid receptor, sequence (P41145 whole entry): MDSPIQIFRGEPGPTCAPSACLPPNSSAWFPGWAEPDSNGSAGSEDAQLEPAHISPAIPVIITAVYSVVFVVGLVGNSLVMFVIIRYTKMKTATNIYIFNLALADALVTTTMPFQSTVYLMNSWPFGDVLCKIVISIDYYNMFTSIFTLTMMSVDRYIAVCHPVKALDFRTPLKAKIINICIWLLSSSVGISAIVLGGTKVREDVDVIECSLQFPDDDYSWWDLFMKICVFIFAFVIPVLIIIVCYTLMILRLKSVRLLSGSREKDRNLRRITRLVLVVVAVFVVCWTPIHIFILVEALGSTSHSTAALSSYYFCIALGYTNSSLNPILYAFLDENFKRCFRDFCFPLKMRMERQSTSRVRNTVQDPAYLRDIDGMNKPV
Data set [3] is described as follows: In vivo pharmacokinetics and brain partition study. The following applies: rats, fasted, single 1 mg/kg iv dose. On the procedure: single 1 mg/kg iv dose administered in rats under fasted conditions plasma concentrations determined at 10 time points (2 mins -24 hrs) brain partition ratio determined at 1 and 4 hours

pIC50, pKi: −log10 of the molar value. “Also recorded” adds a separate entry of the source.

T1 sequence (P41143 whole entry): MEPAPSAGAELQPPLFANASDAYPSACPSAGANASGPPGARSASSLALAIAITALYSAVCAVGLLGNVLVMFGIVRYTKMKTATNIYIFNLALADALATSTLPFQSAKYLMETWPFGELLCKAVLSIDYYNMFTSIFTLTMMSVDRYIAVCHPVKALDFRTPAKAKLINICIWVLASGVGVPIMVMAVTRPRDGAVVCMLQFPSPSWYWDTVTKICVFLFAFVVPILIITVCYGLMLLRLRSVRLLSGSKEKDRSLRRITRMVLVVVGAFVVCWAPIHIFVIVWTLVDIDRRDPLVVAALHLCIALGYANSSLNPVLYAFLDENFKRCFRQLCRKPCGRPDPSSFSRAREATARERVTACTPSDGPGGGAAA

Broadly, the pIC50 is the IC50 on a negative log10 scale, so that one unit is a factor of ten. The low end stands for a large IC50, the high end for a small IC50. What is called pKi is the negative decadic logarithm of the Ki, by convention in mol/L. A lower pKi goes with a high Ki. In the case of `CN1CC[C@]23c4c5ccc(F)c4O[C@H]2[C@@H](O)C=C[C@H]3[C@H]1C5` [F-morphine], the pIC50 in data set [1] was 6.10; in data set [2], below 5.00; on kappa (KOP) receptor, 5.07; on human mu (MOP) receptor, 6.43. The results for the pKi (in data set [1]; at kappa (KOP) receptor; on human mu (MOP) receptor) were 6.24, 5.25 and 6.82, respectively. In addition, in data set [2], the “Delta: binding” value was “no observed binding; also recorded: no significant binding up to 10 uM”. For the same molecule, the values for the nH at kappa (KOP) receptor (agonist radioligand) and at human mu (MOP) receptor (agonist radioligand) were 1.1 and 0.9, respectively. Further, the “function at mu opioid receptor” value at mu opioid receptor is “agonist”. For the same molecule, on kappa opioid receptor, the “function at kappa opioid receptor” value is “agonist”. Further, in data set [3] (rat, brain/plasma, at 1 and 4 hours, read-out: brain/plasma ratio), the Kp at 4 h was in the range of 2 to 3. Also, the “brain partition (in words)” value in data set [3] is reported as “partitions well into the brain”.
